Measurements: ChEMBL document CHEMBL3352473, “Synthesis and evaluation of imidazole-4,5- and pyrazine-2,3-dicarboxamides targeting dengue and yellow fever virus” (Eur J Med Chem, 2014)

Key:
[1] = Selectivity index, ratio of CC50 for green monkey Vero-B cells to EC50 for Dengue virus infected in green monkey Vero-B cells; type: toxicity, cell-based; conditions: read-out: Ratio CC50/EC50
[2] = Selectivity index, ratio of CC50 for green monkey Vero-B cells to EC50 for Yellow fever virus infected in green monkey Vero-B cells; type: toxicity, cell-based; conditions: read-out: Ratio CC50/EC50

Structure (SMILES) | selectivity ratio [1] | selectivity ratio [2]
Cc1ccc(NC(=O)c2nc[nH]c2C(=O)Nc2ccccc2)c(-c2ccsc2)c1 | 1 | 13
Cc1ccc(NC(=O)c2nc[nH]c2C(=O)Nc2ccc(F)cc2)c(-c2cc(C)n[nH]2)c1 | 48 | 34.5
Cc1cc(-c2ccccc2NC(=O)c2nc[nH]c2C(=O)Nc2ccc(F)cc2)[nH]n1 | 3.6 | 67
O=C(NCc1ccccc1-c1ccncc1)c1nc[nH]c1C(=O)Nc1ccc(F)cc1 | 26 | 31
O=C(NCc1ccccc1-c1ccsc1)c1nc[nH]c1C(=O)Nc1ccc(F)cc1 | 1.95 | 13.2
O=C(NCc1ccc(-c2cccnc2)cc1)c1nc[nH]c1C(=O)Nc1ccc(F)cc1 | 2.85 | 10
O=C(NCc1ccc(-c2ccsc2)cc1)c1nc[nH]c1C(=O)Nc1ccc(F)cc1 | 0.6 | 4.13
O=C(NCc1ccc(-c2ccncc2)cc1)c1nc[nH]c1C(=O)Nc1ccc(F)cc1 | 1 | 1
Cc1ccc(NC(=O)c2nc[nH]c2C(=O)Nc2ccc(F)cc2)c(-c2ccsc2)c1 | 2.4 | 1
Cc1ccc(NC(=O)c2nc[nH]c2C(=O)Nc2ccc(F)cc2)c(-c2ccco2)c1 | 1 | –
Cc1ccc(NC(=O)c2[nH]cnc2C(=O)Nc2ccc(C)cc2-c2ccsc2)cc1 | 24.5 | 1
Cc1ccc(NC(=O)c2[nH]cnc2C(=O)Nc2ccc(C)cc2-c2ccco2)cc1 | 36.2 | –
Cc1ccc(NC(=O)c2nc[nH]c2C(=O)NCc2ccccc2)c(-c2ccco2)c1 | 1 | –
Cc1ccc(NC(=O)c2nc[nH]c2C(=O)NCCc2ccc(F)cc2)c(-c2ccco2)c1 | 30.9 | –
Cc1cnc(NC(=O)c2[nH]cnc2C(=O)Nc2ccccc2)c(-c2ccc(C)s2)c1 | 0.22 | 0.97
O=C(NCc1ccc(-c2ccncc2)cc1)c1nccnc1C(=O)Nc1ccc(F)cc1 | > 125 | 16
Cc1ccc(NC(=O)c2nccnc2C(=O)Nc2ccc(F)cc2)c(-c2cccnc2)c1 | > 125 | 9
O=C(NCc1ccc(-c2cccnc2)cc1)c1nccnc1C(=O)Nc1ccc(F)cc1 | 38.5 | 13
O=C(Nc1ccc(F)cc1)c1nccnc1C(=O)Nc1ccccc1-c1ccncc1 | 10.4 | 15
O=C(Nc1ccc(F)cc1)c1nccnc1C(=O)Nc1ccccc1-c1cccnc1 | 5.2 | 2.5
O=C(NCc1ccccc1-c1ccncc1)c1nccnc1C(=O)Nc1ccc(F)cc1 | 2.9 | –
Cc1ccc(NC(=O)c2nccnc2C(=O)Nc2ccc(F)cc2)c(-c2ccncc2)c1 | 1 | 2.6
Cc1ccc(NC(=O)c2nccnc2C(=O)NCc2ccc(-c3ccncc3)cc2)cc1 | 4.5 | 3
Cc1ccc(NC(=O)c2nccnc2C(=O)Nc2ccc(C)cc2-c2cccnc2)cc1 | 4.5 | 4.1
Cc1ccc(NC(=O)c2nccnc2C(=O)NCc2ccc(-c3cccnc3)cc2)cc1 | 17.2 | 1.7
Cc1ccc(NC(=O)c2nccnc2C(=O)Nc2ccccc2-c2ccncc2)cc1 | 26 | 10
Cc1ccc(NC(=O)c2nccnc2C(=O)Nc2ccccc2-c2cccnc2)cc1 | 8.8 | 1
Cc1ccc(NC(=O)c2nccnc2C(=O)NCc2ccccc2-c2ccncc2)cc1 | 2.04 | 1.7
Cc1ccc(NC(=O)c2nccnc2C(=O)Nc2ccc(C)cc2-c2ccncc2)cc1 | 10 | 3.8
